Data: paper PMC8080067, “Tight binding of cytochrome b5 to cytochrome P450 17A1 is a critical feature of stimulation of C21 steroid lyase activity and androgen synthesis” (The Journal of Biological Chemistry, 2021)
Changes are numbered by the printed parent chain. Values joined by “and” are separate entries in the source; they are usually repeats but may differ in a detail not shown here. Equal values may be shown once. Read-outs that look alike come from different tables or passages of the source.

Key:
Assay in all cases: Substrate-binding spectral titration (type I, ΔA388-A423)
P450 17A1 R358Q variant = target: T1, P450 17A1 R358Q variant (Homo sapiens, UniProt P05093, R358Q)
T1 sequence (P05093 1-508 R358Q): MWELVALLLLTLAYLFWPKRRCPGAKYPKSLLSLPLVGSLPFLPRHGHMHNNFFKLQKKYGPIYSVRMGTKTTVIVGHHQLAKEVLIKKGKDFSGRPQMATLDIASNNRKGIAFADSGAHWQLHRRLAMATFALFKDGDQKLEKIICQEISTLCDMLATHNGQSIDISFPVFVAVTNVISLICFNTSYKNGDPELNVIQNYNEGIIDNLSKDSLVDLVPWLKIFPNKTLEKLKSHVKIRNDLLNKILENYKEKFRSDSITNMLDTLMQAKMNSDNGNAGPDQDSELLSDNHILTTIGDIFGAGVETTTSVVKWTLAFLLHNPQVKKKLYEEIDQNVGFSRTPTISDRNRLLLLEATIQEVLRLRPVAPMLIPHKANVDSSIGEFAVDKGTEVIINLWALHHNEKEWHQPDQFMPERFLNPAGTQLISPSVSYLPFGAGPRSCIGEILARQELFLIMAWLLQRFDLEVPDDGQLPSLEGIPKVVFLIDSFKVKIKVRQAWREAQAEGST
Description: (§1) The purified enzymes were diluted in 100 mM potassium phosphate buffer (pH 7.4) and divided in two 1.0-ml glass cuvettes. Spectra (350–500 nm) were recorded using an OLIS-DW2 spectrophotometer (On-Line Instrument Systems) with subsequent additions of the substrate. Differences in the absorbance between the wavelength maximum and minimum were plotted versus the substrate concentration ([44]). Kd values were calculated using nonlinear regression analysis in GraphPad Prism software (GraphPad) and the quadratic equation: Y=B+A/2E[(Kd+E+X)−(Kd+E+X)^2−4EX], set in Prism as: Y = B + (A/2) ∗ (1/E) ∗ ((Kd + E + X)-sqrt((Kd + E + X)^ˆ2 - (4 ∗ E ∗ X))).
(§2) Figure S2. […] Increasing concentrations of substrates were added to the sample and reference cuvettes in each case.

P450 17A1 E305G variant = target: T2, P450 17A1 E305G variant (Homo sapiens, UniProt P05093, E305G)
T2 sequence (P05093 1-508 E305G): T1 sequence (P05093 1-508 R358Q) with E305G, Q358R
Description: as §1, §2

P450 17A1 R347H variant = target: T3, P450 17A1 R347H variant (Homo sapiens, UniProt P05093, R347H)
T3 sequence (P05093 1-508 R347H): T1 sequence (P05093 1-508 R358Q) with R347H, Q358R
Description: as §1, §2

WT P450 17A1 = target: T4, WT P450 17A1 (Homo sapiens, UniProt P05093)
T4 sequence (P05093 1-508): T1 sequence (P05093 1-508 R358Q) with Q358R
Description: as §1, §2

[1] = Kd of P450 17A1·substrate complex, WT, P450 1.0 µM, quadratic fit

Row | Kd (P450 17A1 R358Q variant) | Kd (P450 17A1 E305G variant) | Kd (P450 17A1 R347H variant) | Kd (WT P450 17A1; [1]) | Compound | Kd (WT P450 17A1)
1 | 260 ± 120 nM | 170 ± 80 nM | 230 ± 100 nM | ~65 nM and 65 nM | CC(=O)[C@H]1CC[C@H]2[C@@H]3CCC4=CC(=O)CC[C@]4(C)[C@H]3CC[C@]12C [Progesterone] | –
2 | 150 ± 60 nM | 260 ± 80 nM | 120 ± 50 nM | 140 ± 60 nM | CC(=O)C1CCC2C3CC=C4C[C@@H](O)CC[C@]4(C)C3CC[C@]12C (stereo partly drawn) [Pregnenolone] | –

Row | Compound | Kd (P450 17A1 R358Q variant) | Kd (P450 17A1 E305G variant) | Kd (P450 17A1 R347H variant) | Kd (WT P450 17A1; [1]) | Kd (WT P450 17A1)
3 | CC(=O)[C@@]1(O)CCC2C3CC=C4C[C@@H](O)CC[C@]4(C)C3CC[C@@]21C (stereo partly drawn) [17α-OH pregnenolone] | 260 ± 120 nM | 410 ± 180 nM | 220 ± 100 nM | – | 110 ± 50 nM
